Data: PubChem BioAssay (NCI)
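Each compound was tested at five concentrations against cells in 96-well plates for 48 hours. At the TGI there is no net growth.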

Assays:
Assay in all cases: growth of human tumour cells (NCI), 48 h
KM12 colon = system: KM12 colon
HCT-15 colon = system: HCT-15 colon
NCI-H226 lung = system: NCI-H226 lung
UACC-257 melanoma = system: UACC-257 melanoma
CAKI-1 renal = system: CAKI-1 renal
NCI/ADR-RES ovarian = system: NCI/ADR-RES ovarian
SNB-75 CNS = system: SNB-75 CNS
PC-3 prostate = system: PC-3 prostate
COLO 205 colon = system: COLO 205 colon
SF-268 CNS = system: SF-268 CNS
786-0 renal = system: 786-0 renal
MOLT-4 leukemia = system: MOLT-4 leukemia
HCT-116 colon = system: HCT-116 colon
UO-31 renal = system: UO-31 renal
NCI-H23 lung = system: NCI-H23 lung
UACC-62 melanoma = system: UACC-62 melanoma
MALME-3M melanoma = system: MALME-3M melanoma
DU-145 prostate = system: DU-145 prostate
OVCAR-4 ovarian = system: OVCAR-4 ovarian
SN12C renal = system: SN12C renal
SW-620 colon = system: SW-620 colon
OVCAR-8 ovarian = system: OVCAR-8 ovarian
BT-549 breast = system: BT-549 breast
SNB-19 CNS = system: SNB-19 CNS
EKVX NSCLC = system: EKVX NSCLC
MDA-MB-231 breast = system: MDA-MB-231 breast
HT29 colon = system: HT29 colon
MDA-N = system: MDA-N
M14 melanoma = system: M14 melanoma
MCF7 breast = system: MCF7 breast
SF-295 CNS = system: SF-295 CNS
LOX IMVI melanoma = system: LOX IMVI melanoma
TK-10 renal = system: TK-10 renal
HS 578T breast = system: HS 578T breast
OVCAR-5 ovarian = system: OVCAR-5 ovarian
IGROV1 ovarian = system: IGROV1 ovarian
A549 NSCLC = system: A549 NSCLC
HCC-2998 colon = system: HCC-2998 colon
MDA-MB-435 = system: MDA-MB-435
NCI-H460 lung = system: NCI-H460 lung
HOP-62 NSCLC = system: HOP-62 NSCLC
SK-OV-3 ovarian = system: SK-OV-3 ovarian
OVCAR-3 ovarian = system: OVCAR-3 ovarian
SK-MEL-5 melanoma = system: SK-MEL-5 melanoma
T-47D breast = system: T-47D breast
SK-MEL-28 melanoma = system: SK-MEL-28 melanoma
SR leukemia = system: SR leukemia
U251 CNS = system: U251 CNS
NCI-H522 lung = system: NCI-H522 lung
HOP-92 NSCLC = system: HOP-92 NSCLC
SF-539 CNS = system: SF-539 CNS
A498 renal = system: A498 renal
SK-MEL-2 melanoma = system: SK-MEL-2 melanoma
ACHN renal = system: ACHN renal
RPMI-8226 leukemia = system: RPMI-8226 leukemia
HL-60(TB) leukemia = system: HL-60(TB) leukemia
CCRF-CEM leukemia = system: CCRF-CEM leukemia
RXF 393 renal = system: RXF 393 renal
K-562 leukemia = system: K-562 leukemia

O=Cc1c(-c2ccccc2)[nH]c2ccccc2c1=O
TGI (KM12 colon): > 100 µM | TGI (HCT-15 colon): > 100 µM | TGI (NCI-H226 lung): > 100 µM | TGI (UACC-257 melanoma): > 100 µM | TGI (CAKI-1 renal): > 100 µM | TGI (NCI/ADR-RES ovarian): > 100 µM | TGI (SNB-75 CNS): 86.4 µM | TGI (PC-3 prostate): > 100 µM | TGI (COLO 205 colon): 82.3 µM | TGI (SF-268 CNS): > 100 µM | TGI (786-0 renal): > 100 µM | TGI (MOLT-4 leukemia): > 100 µM | TGI (HCT-116 colon): > 100 µM | TGI (UO-31 renal): > 100 µM | TGI (NCI-H23 lung): > 100 µM | TGI (UACC-62 melanoma): > 100 µM | TGI (MALME-3M melanoma): > 100 µM | TGI (DU-145 prostate): > 100 µM | TGI (OVCAR-4 ovarian): > 100 µM | TGI (SN12C renal): > 100 µM | TGI (SW-620 colon): > 100 µM | TGI (OVCAR-8 ovarian): > 100 µM | TGI (BT-549 breast): > 100 µM | TGI (SNB-19 CNS): > 100 µM | TGI (EKVX NSCLC): > 100 µM | TGI (MDA-MB-231 breast): > 100 µM | TGI (HT29 colon): > 100 µM | TGI (MDA-N): 34.2 µM | TGI (M14 melanoma): > 100 µM | TGI (MCF7 breast): > 100 µM | TGI (SF-295 CNS): > 100 µM | TGI (LOX IMVI melanoma): > 100 µM | TGI (TK-10 renal): > 100 µM | TGI (HS 578T breast): 98.9 µM | TGI (OVCAR-5 ovarian): > 100 µM | TGI (IGROV1 ovarian): > 100 µM | TGI (A549 NSCLC): > 100 µM | TGI (HCC-2998 colon): > 100 µM | TGI (MDA-MB-435): 88.1 µM | TGI (NCI-H460 lung): > 100 µM | TGI (HOP-62 NSCLC): > 100 µM | TGI (SK-OV-3 ovarian): > 100 µM | TGI (OVCAR-3 ovarian): > 100 µM | TGI (SK-MEL-5 melanoma): 53.9 µM | TGI (T-47D breast): > 100 µM | TGI (SK-MEL-28 melanoma): > 100 µM | TGI (SR leukemia): 37.4 µM | TGI (U251 CNS): > 100 µM | TGI (NCI-H522 lung): > 100 µM | TGI (HOP-92 NSCLC): > 100 µM | TGI (SF-539 CNS): > 100 µM | TGI (A498 renal): > 100 µM | TGI (SK-MEL-2 melanoma): > 100 µM | TGI (ACHN renal): > 100 µM | TGI (RPMI-8226 leukemia): 85.6 µM

COc1cc(/C=N/c2ccccn2)cc(OC)c1OC
TGI (HL-60(TB) leukemia): > 100 µM | TGI (KM12 colon): > 100 µM | TGI (HCT-15 colon): > 100 µM | TGI (NCI-H226 lung): > 100 µM | TGI (UACC-257 melanoma): > 100 µM | TGI (CAKI-1 renal): > 100 µM | TGI (NCI/ADR-RES ovarian): > 100 µM | TGI (SNB-75 CNS): > 100 µM | TGI (COLO 205 colon): > 100 µM | TGI (SF-268 CNS): > 100 µM | TGI (786-0 renal): > 100 µM | TGI (MOLT-4 leukemia): > 100 µM | TGI (HCT-116 colon): > 100 µM | TGI (UO-31 renal): > 100 µM | TGI (NCI-H23 lung): > 100 µM | TGI (UACC-62 melanoma): > 100 µM | TGI (MALME-3M melanoma): > 100 µM | TGI (DU-145 prostate): > 100 µM | TGI (OVCAR-4 ovarian): > 100 µM | TGI (SN12C renal): > 100 µM | TGI (SW-620 colon): > 100 µM | TGI (OVCAR-8 ovarian): > 100 µM | TGI (BT-549 breast): > 100 µM | TGI (SNB-19 CNS): > 100 µM | TGI (EKVX NSCLC): > 100 µM | TGI (CCRF-CEM leukemia): > 100 µM | TGI (MDA-MB-231 breast): > 100 µM | TGI (HT29 colon): > 100 µM | TGI (MDA-N): > 59.4 µM | TGI (M14 melanoma): > 100 µM | TGI (MCF7 breast): > 100 µM | TGI (SF-295 CNS): > 100 µM | TGI (LOX IMVI melanoma): > 100 µM | TGI (HS 578T breast): > 100 µM | TGI (OVCAR-5 ovarian): > 100 µM | TGI (IGROV1 ovarian): > 100 µM | TGI (A549 NSCLC): > 100 µM | TGI (HCC-2998 colon): > 100 µM | TGI (RXF 393 renal): > 100 µM | TGI (MDA-MB-435): 58.6 µM | TGI (NCI-H460 lung): > 100 µM | TGI (HOP-62 NSCLC): > 100 µM | TGI (SK-OV-3 ovarian): > 100 µM | TGI (OVCAR-3 ovarian): > 100 µM | TGI (SK-MEL-5 melanoma): > 100 µM | TGI (T-47D breast): > 100 µM | TGI (SK-MEL-28 melanoma): > 100 µM | TGI (SR leukemia): > 100 µM | TGI (U251 CNS): > 100 µM | TGI (NCI-H522 lung): > 100 µM | TGI (HOP-92 NSCLC): > 100 µM | TGI (SF-539 CNS): > 100 µM | TGI (A498 renal): > 100 µM | TGI (SK-MEL-2 melanoma): > 100 µM | TGI (ACHN renal): > 100 µM | TGI (K-562 leukemia): > 100 µM | TGI (RPMI-8226 leukemia): > 100 µM
